Among the test systems are A498 renal; HCC-2998 colon; HCT-15 colon; HL-60(TB) leukemia; HT29 colon; IGROV1 ovarian; M14 melanoma; MCF7 breast; MDA-MB-435; NCI-H460 lung; OVCAR-4 ovarian; SNB-19 CNS; T-47D breast; SR leukemia.
Common to all, as to assay: growth of human tumour cells (NCI), 48 h

From PubChem BioAssay (NCI) come the findings set out here.

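All cell lines were grown in 96-well plates and treated with compound for 48 hours. The concentration for full growth arrest is given as TGI.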

For the compound `CCCc1cc(COC)c(C#N)c(=O)[nH]1`, the TGI with A498 renal, in the assay with HCC-2998 colon, with HCT-15 colon, in the assay with HL-60(TB) leukemia, with HT29 colon and in the assay on IGROV1 ovarian was above 100 µM in each case. Besides, the TGI in the assay on M14 melanoma, in the assay with MCF7 breast, with MDA-MB-435, in the assay with NCI-H460 lung, in the assay on OVCAR-4 ovarian and in the assay with SNB-19 CNS was above 100 µM throughout. In the assay with T-47D breast, this compound yielded a TGI above 100 µM.
Regarding `CCCCc1ccc(Nc2nc(OC)c3ncn(C4CC(O)C(CO)O4)c3n2)cc1` (centres undefined), the TGI in the assay on A498 renal turned out to be 35.3 µM; in the assay on HCC-2998 colon, 20.4 µM; with HCT-15 colon, 34.3 µM; in the assay on HL-60(TB) leukemia, 4.16 µM; in the assay on HT29 colon, 37.1 µM; with IGROV1 ovarian it was 27.2 µM. The TGI with M14 melanoma amounted to 85.6 µM; in the assay with MCF7 breast it was 29.4 µM; in the assay on MDA-MB-435, 36.6 µM; in the assay with NCI-H460 lung, 32.9 µM; in the assay with OVCAR-4 ovarian, 35.9 µM; with SNB-19 CNS, 34.3 µM. This compound also had a TGI in the assay with T-47D breast of 43.1 µM.
As to `[B-][P+](CC[P+]1([B-])[C@@H](C)[C@@H](O)[C@H](O)[C@@H]1C)(c1ccccc1)c1ccccc1OC` (some centres undefined), the TGI in the assay on A498 renal was 32 µM; with HCT-15 colon, 33.3 µM; in the assay with HL-60(TB) leukemia, 54 µM; with HT29 colon it was 40.6 µM; in the assay with IGROV1 ovarian, 31.3 µM; with M14 melanoma, 34 µM. Further, the TGI in the assay with MCF7 breast was found to be 35.6 µM; in the assay with MDA-MB-435, 30.4 µM; in the assay on NCI-H460 lung it was 32 µM; in the assay with OVCAR-4 ovarian, 31.7 µM; in the assay with SNB-19 CNS, 30.9 µM; in the assay on T-47D breast, 37.3 µM.
Turning to `CCCSc1ccc2[nH]c(N3C(=O)/C(=C/c4ccc(SC)cc4)N=C3c3ccccc3)cc2c1`, the TGI was above 50 µM in the assay on A498 renal; above 50 µM in the assay on HCC-2998 colon; above 50 µM in the assay on HCT-15 colon; 24.8 µM in the assay with HL-60(TB) leukemia; above 50 µM in the assay with HT29 colon; above 50 µM in the assay with IGROV1 ovarian. Further, the TGI in the assay with M14 melanoma was above 50 µM; with MCF7 breast, above 50 µM; in the assay with MDA-MB-435 it was 21.2 µM; in the assay with NCI-H460 lung it was above 50 µM; with OVCAR-4 ovarian, above 50 µM; in the assay with SNB-19 CNS it was above 50 µM. Besides, the TGI with T-47D breast is above 50 µM.
On to `O=C1NN(Cc2ccccc2)C(=O)N2CCC[C@@H]12`, for which the TGI with A498 renal, in the assay with HCC-2998 colon, with HCT-15 colon, in the assay with HL-60(TB) leukemia, with HT29 colon and with IGROV1 ovarian was above 100 µM each time. Moreover, the TGI in the assay on M14 melanoma, in the assay on MCF7 breast, in the assay on MDA-MB-435, with NCI-H460 lung, in the assay on OVCAR-4 ovarian and with SNB-19 CNS was above 100 µM in each case. Further, in the assay with T-47D breast, the TGI is above 100 µM.
For the compound `COc1cccc(/C=C2\S/C(=N/Nc3nc(C)c(C)s3)NC2=O)c1O`, the TGI with A498 renal, in the assay with HCC-2998 colon, in the assay with HCT-15 colon, in the assay on HL-60(TB) leukemia, with HT29 colon and with IGROV1 ovarian was above 100 µM throughout. For the same compound, the TGI with M14 melanoma, in the assay with MCF7 breast, with MDA-MB-435, in the assay on NCI-H460 lung, with OVCAR-4 ovarian and in the assay with SNB-19 CNS was above 100 µM each time. Also, in the assay on T-47D breast, the TGI came out at 73.8 µM.
For `CC(=O)NCC1OC2COC(c3ccccc3)OC2C(NC(=O)c2ccccc2)C1OC(=O)c1ccccc1` (centres undefined), the TGI with A498 renal, in the assay on HCC-2998 colon, with HCT-15 colon, with HL-60(TB) leukemia, with HT29 colon and in the assay with M14 melanoma was above 100 µM each time. Also, the TGI in the assay with MCF7 breast, in the assay on MDA-MB-435, with NCI-H460 lung, with OVCAR-4 ovarian, with SNB-19 CNS and in the assay on T-47D breast was above 100 µM in each case.
`N[C@@H]1CCN(c2c(F)cc3c(=O)c(C(=O)O)cn4c3c2Oc2cc3c(ccc5ccccc53)cc2-4)C1`: the TGI in the assay on A498 renal was above 44.8 µM; in the assay with HCT-15 colon it was above 100 µM; with HL-60(TB) leukemia, above 59.9 µM; in the assay with HT29 colon, above 100 µM; in the assay on IGROV1 ovarian it was above 100 µM; in the assay with M14 melanoma it was above 100 µM. Moreover, the TGI in the assay with MCF7 breast was above 100 µM; in the assay with MDA-MB-435, above 100 µM; in the assay with NCI-H460 lung it was 7.01 µM; in the assay on OVCAR-4 ovarian, above 100 µM; in the assay on SNB-19 CNS, above 100 µM; in the assay with T-47D breast, 31.3 µM.
Consider `CCOC(=O)c1nc2cc(C(F)(F)F)ccc2nc1Nc1ccc(C(=O)OC)s1`, for which the TGI was 81.6 µM in the assay with A498 renal; above 100 µM in the assay on HCC-2998 colon; above 100 µM in the assay with HCT-15 colon; above 100 µM in the assay on HL-60(TB) leukemia; above 100 µM in the assay on HT29 colon; above 100 µM with IGROV1 ovarian. In addition, the TGI in the assay on M14 melanoma is above 100 µM; in the assay on MDA-MB-435, above 100 µM; with NCI-H460 lung it was above 100 µM; in the assay with OVCAR-4 ovarian it was above 100 µM; with SNB-19 CNS, above 100 µM; in the assay on SR leukemia, 39.6 µM. Also, in the assay on T-47D breast, the TGI was above 100 µM.
